Experimental data as given in patent US20190085289A1, “COMPOSITIONS AND METHODS FOR PATHOGEN INACTIVATION OF PLATELETS” (Cerus Corporation, priority 2017, published 2019).

How the values were obtained:
[1] = Stability of S-59 in InterSol PAS under ambient light (HPLC); type: physicochemical; conditions: S-59 230 μM in InterSol PAS, room temp
Protocol: Initial studies evaluated stability of the pathogen inactivation compound amotosalen (S-59) that was formulated in a platelet additive solution (PAS). A 230 μM solution of psoralen compound S-59 (Irsch et al., Transfus Med Hemother, 38: 19-31 (2011)) was prepared in the commercially available PAS solution InterSol® (Fenwal Inc.) and maintained at room temperature under ambient light conditions. HPLC analysis was performed on samples at times listed in Table 1 for both S-59 and photoproducts. […] S-59 data are shown as both concentration (μM), as well as peak area (S-59 UV) for relative comparison to any photoproducts detected with HPLC (Table 1). Peak D and Peak E photoproducts also were observed by 22 hr and 72 hr, respectively, as well as process impurity decomposition product 4′-HMT, with peak area values indicated (Table 1).

[2] = Stability of S-59 in InterSol PAS protected from ambient light (HPLC); type: physicochemical; conditions: S-59 230 μM in InterSol PAS, room temp, protected from light
Protocol: Additional studies evaluated stability of the S-59 (amotosalen) pathogen inactivation compound formulated in a platelet additive solution (PAS), but protected from ambient light exposure. A 230 μM solution of S-59 was prepared in the commercially available PAS solution InterSol® (Fenwal Inc.) and maintained at room temperature protected from ambient light conditions. HPLC analysis was performed on samples at times listed in Table 2 for both S-59 and photoproducts.

Cc1oc2c(C)c3oc(=O)cc(C)c3cc2c1CO [4′-HMT]
4′-HMT UV peak area (HPLC) ([1]; 5 hr): 5.624
4′-HMT UV peak area (HPLC) ([1]; 6 hr): 5.090
4′-HMT UV peak area (HPLC) ([1]; 22 hr): 5.125
4′-HMT UV peak area (HPLC) ([1]; 30 hr): 5.334
4′-HMT UV peak area (HPLC) ([1]; 47 hr): 4.954
4′-HMT UV peak area (HPLC) ([1]; 56 hr): 4.742
4′-HMT UV peak area (HPLC) ([1]; 72 hr): 4.839
4′-HMT UV peak area (HPLC) ([1]; 78 hr): 4.793
4′-HMT UV peak area (HPLC) ([1]; T 0): 4.924
4′-HMT UV peak area (HPLC) ([2]; 5.5 hr): 3.7162
4′-HMT UV peak area (HPLC) ([2]; 21.5 hr): 4.3525
4′-HMT UV peak area (HPLC) ([2]; 28.5 hr): 3.8628
4′-HMT UV peak area (HPLC) ([2]; 44 hr): 4.0199
4′-HMT UV peak area (HPLC) ([2]; 45.5 hr): 4.4036
4′-HMT UV peak area (HPLC) ([2]; 53 hr): 4.0582
4′-HMT UV peak area (HPLC) ([2]; 77 hr): 4.4268
4′-HMT UV peak area (HPLC) ([2]; T 0): 3.8849
